Legend:
Mus musculus [1] = species: Mus musculus; assay: animal or person; details: SHR, iv
Description: Analgesic activity in iv dosed SHR mouse by hot plate assay

Mus musculus [2] = species: Mus musculus; assay: animal or person; details: DBA, Tail, iv
Description: Analgesic activity in iv dosed DBA mouse by tail flick assay

Mus musculus [3] = species: Mus musculus; assay: animal or person; details: SHR, iv; remark: listed apart in the source
Description: Analgesic activity in iv dosed SHR mouse by tail clip assay

Mus musculus [4] = assay: Analgesic activity in iv dosed DBA mouse by tail clip assay; type: functional
Mus musculus [5] = species: Mus musculus; assay: animal or person; details: DBA, iv
Description: Analgesic activity in iv dosed DBA mouse by writhing assay

Mus musculus [6] = species: Mus musculus; assay: animal or person; details: SHR, iv; remark: listed apart in the source
Description: Analgesic activity in iv dosed SHR mouse by writhing assay

Mus musculus [7] = species: Mus musculus; assay: animal or person; details: SHR, Tail, iv
Description: Analgesic activity in iv dosed SHR mouse by tail flick assay

Mus musculus [8] = species: Mus musculus; assay: animal or person; details: DBA, iv; remark: listed apart in the source
Description: Analgesic activity in iv dosed DBA mouse by hot plate assay

In the case of `CO[C@@]12CC[C@@]3(C[C@@H]1[C@](C)(O)C(C)(C)C)[C@H]1Cc4ccc(O)c5c4[C@@]3(CCN1CC1CC1)[C@H]2O5` [BUPRENORPHINE], the ED50 (Mus musculus [1]) is reported as 0.0233 mg/kg, the ED50 (Mus musculus [2]) is reported as 0.312 mg/kg and the ED50 (Mus musculus [3]) is reported as 0.0466 mg/kg. The Efficacy (Mus musculus [4]) was 46.7%, the ED50 (Mus musculus [5]) was 0.0295 mg/kg and the ED50 (Mus musculus [6]) was 0.0223 mg/kg. It also gave an ED50 (Mus musculus [7]) of 0.0404 mg/kg and an ED50 (Mus musculus [8]) of 0.195 mg/kg.

Reference: ChEMBL document CHEMBL1138911 (Bioorg Med Chem Lett, 2006)
